ChEMBL document CHEMBL3632519, “Withanolides and Sucrose Esters from Physalis neomexicana” (J Nat Prod, 2015)
pIC50: −log10 of the molar value.

Experiments:
MCF7 = test: Cytotoxicity against human MCF7 cells by MTT assay; assay type: functional, cell-based
MDA-MB-231 = test: Cytotoxicity against human MDA-MB-231 cells by MTT assay; assay type: functional, cell-based

SMILES | pIC50 (MCF7) | pIC50 (MDA-MB-231)
CC(=O)O[C@H]1C[C@H]([C@@](C)(O)[C@@H]2C[C@H](C)[C@@H](C)C(=O)O2)[C@@]2(C)CC[C@H]3[C@@H](C[C@H]4O[C@]45CC=CC(=O)[C@]35C)[C@@]12O | 5.20 | 5.77
CC1=C(C)C(=O)O[C@@H]([C@@H](C)[C@H]2CC[C@H]3[C@@H]4C[C@H]5O[C@]56[C@@H](O)C=CC(=O)[C@]6(CO)[C@H]4CC[C@]23C)C1 [WITHALONGOLIDE B] | 6.10 | 6.70
CC1=C(CO)C(=O)O[C@@H]([C@@H](C)[C@H]2CC[C@H]3[C@@H]4C[C@H]5O[C@]56[C@@H](O)C=CC(=O)[C@]6(C)[C@H]4CC[C@]23C)C1 [WITHAFERIN A] | – | 6.30
